Seven molecules from ChEMBL document CHEMBL1201862, “PubChem BioAssay data set” (2004) can be followed below.

The structures appear in SMILES notation.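 The compound was tested at five concentrations on cells cultured in 96-well plates, with a 48-hour exposure period. GI50 marks 50% less growth.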 Activity calls are given as the source filed them. Cut-off read from the data, not from the text of the source: active = GI50 up to about 1.1 µM and inactive = higher. Where only a bound is given, the exact number is not on record here.

Holding throughout (assay): growth of human tumour cells (NCI), 48 h
The test system of test [1] is SNB-19.
Test [2] has as its system MDA-MB-231.
Test [3] deals with HCT-15.
The test system of test [4] is Hs-578T.
The test system of test [5] is SW-620.
For test [6], the system named is SF-295.
Test [7] deals with MDA-MB-435.
Test [8] has as its system OVCAR-4.
The subject of test [9] is T47D.
Test [10] has as its system TK-10.
Test [11] deals with SK-OV-3.
In test [12] the test system is SR.
For test [13], the system named is M14.
Test [14] relates to K562.
The subject of test [15] is SNB-75.
The test system of test [16] is LOX IMVI.
Test [17] concerns KM12.
Test [18] has as its system SK-MEL-2.
Test [19] relates to 786-0.
For test [20], the system named is HOP-92.

With `Cc1ccc([S+]([O-])C[C@](NC(=O)OCc2ccccc2)(Sc2ccccc2)C(F)F)cc1` (stereo not given in full), the GI50 in test [1] was 14.4 µM (inactive); in test [2], 19.4 µM (inactive); in test [3] it was 17.1 µM; in [4] it was 23.9 µM (inactive); in test [5], 19.6 µM (inactive); in test [6] it was 16.8 µM (inactive). For the same molecule, the GI50 in [7] was 29.7 µM (inactive); in [8] it was 13.2 µM (inactive); in [9], 10.5 µM (inactive); in [10], 20.3 µM (inactive); in test [11] it was 16.7 µM (inactive); in test [12] it was 10.8 µM (inactive). The GI50 in [13] was 33.3 µM (inactive); in test [14], 10.2 µM (inactive); in test [15] it was 13.2 µM (inactive); in test [16], 4.16 µM (inactive); in test [17], 14.6 µM (inactive); in [18], 27.6 µM (inactive). The results for the GI50 in [19] and in [20] were 13 µM (inactive) and 17.8 µM (inactive), respectively.
On to `O=C(CNC(=O)OCc1ccccc1)NCCCCC(NC(=O)OCc1ccccc1)C(=O)O` (stereo not given), for which the GI50 in [1] is > 100 µM (inactive); in test [2], > 100 µM (inactive); in test [3], > 100 µM; in [4], > 100 µM (inactive); in test [5], > 100 µM (inactive); in test [6], > 100 µM (inactive). In addition, the GI50 in [7], in test [8], in test [9], in [10], in test [11] and in test [12] was > 100 µM (inactive) in each case. For the same molecule, the GI50 in test [13], in test [14], in [15], in test [16], in test [17] and in test [18] was > 100 µM (inactive) each time. The GI50 in [19] and in [20] was > 100 µM (inactive) each time.
Take `NC(=O)CCSC(CC(=O)c1ccc(Cl)cc1)c1ccc(Cl)cc1` (stereo not given): the GI50 in test [1] was 32.5 µM (inactive); in test [2] it was 40.2 µM (inactive); in test [3], 10.5 µM; in [4] it was 46.5 µM (inactive); in test [5], 3.08 µM (inactive); in test [6], 25.2 µM (inactive). Further, the GI50 in test [7] was 16 µM (inactive); in [8], 16.8 µM (inactive); in test [9], 19.1 µM (inactive); in [10] it was 48 µM (inactive); in [11] it was 38.1 µM (inactive); in test [12], 4.06 µM (inactive). The GI50 is 27.2 µM (inactive) in test [13]; 7.1 µM (inactive) in test [14]; 40.1 µM (inactive) in test [15]; 12.1 µM (inactive) in [16]; 6.11 µM (inactive) in test [17]; 24.3 µM (inactive) in test [18]. Besides, the GI50 in test [19] was 30 µM (inactive); in test [20] it was 15 µM (inactive).
On to `COc1cc2c(cc1OC)C1(c3ccccc3)CN(C2)Cc2cc(OC)c(OC)cc21`, for which the GI50 is 44.5 µM (inactive) in [1]; 24.3 µM (inactive) in test [2]; 24.3 µM in test [3]; 27.5 µM (inactive) in test [4]; 33.6 µM (inactive) in test [5]; 32.6 µM (inactive) in test [6]. Besides, the GI50 in [7] is 14.5 µM (inactive); in test [8] it was 23.3 µM (inactive); in test [9], 35.6 µM (inactive); in [10], 44.7 µM (inactive); in [11], 45.8 µM (inactive); in [12], 5.3 µM (inactive). For the same molecule, the GI50 was 23.9 µM (inactive) in test [13]; 29.1 µM (inactive) in test [14]; 27.9 µM (inactive) in [15]; 34.8 µM (inactive) in [16]; 30.8 µM (inactive) in test [17]; 25.7 µM (inactive) in test [18]. Besides, the GI50 in test [19] is 31.6 µM (inactive); in test [20], 32.6 µM (inactive).
Consider `CC(=O)NNc1nc(C)c(C(=O)NNC(=O)C(=O)Nc2nc3ccc([N+](=O)[O-])cc3s2)s1`, for which the GI50 is 81.7 µM (inactive) in test [1]; 18.7 µM (inactive) in test [2]; > 68.1 µM in [3]; 51.6 µM (inactive) in test [4]; > 65.9 µM (inactive) in test [5]; 60.8 µM (inactive) in [6]. In addition, the GI50 was 60.4 µM (inactive) in test [7]; 46.7 µM (inactive) in test [8]; 22.6 µM (inactive) in test [9]; 50.4 µM (inactive) in test [10]; 64.4 µM (inactive) in [11]; 26.4 µM (inactive) in test [12]. Besides, the GI50 in test [13] is > 67.8 µM (inactive); in test [14], 25 µM (inactive); in [15], 29.4 µM (inactive); in test [16], 54.1 µM (inactive); in test [17], 33.9 µM (inactive); in test [18] it was 56.9 µM (inactive). Moreover, the GI50 is 61.5 µM (inactive) in test [19] and 28.8 µM (inactive) in test [20].
As for `O=C1OI(C#Cc2ccccc2)c2ccccc21`, the GI50 was 7.29 µM (inactive) in test [1]; 6.1 µM (inactive) in test [2]; 3.18 µM in [3]; 4.16 µM (inactive) in [4]; 2.19 µM (inactive) in [5]; 13.5 µM (inactive) in test [6]. The GI50 in test [7] was 3.72 µM (inactive); in test [8], 3.93 µM (inactive); in test [9], 3.16 µM (inactive); in test [10], 3.29 µM (inactive); in test [11], 12.2 µM (inactive); in test [12] it was 1.46 µM (inactive). Besides, the GI50 in [13] was 4.38 µM (inactive); in test [14] it was 2.15 µM (inactive); in test [15] it was 3.89 µM (inactive); in test [16], 2.74 µM (inactive); in [17] it was 3.52 µM (inactive); in test [18], 11.7 µM (inactive). Moreover, the GI50 was 3.11 µM (inactive) in test [19] and 1.88 µM (inactive) in [20].
For `C=C1C(=O)OC2CC(C)C3C=CC(=O)C3CC12` (stereo not given), the GI50 was 15.4 µM (inactive) in test [1]; 1.89 µM (inactive) in test [2]; 1.85 µM in [3]; 1.85 µM (inactive) in [4]; 0.998 µM (active) in test [5]; 14.6 µM (inactive) in test [6]. The GI50 in test [7] was 3.31 µM (inactive); in test [8] it was 2.95 µM (inactive); in [9], 2.34 µM (inactive); in test [10], 3.16 µM (inactive); in [11] it was 16.1 µM (inactive); in test [12], 0.824 µM (active). Further, the GI50 in test [13] was 1.62 µM (inactive); in test [14], 1.46 µM (inactive); in test [15] it was 5.51 µM (inactive); in [16], 0.867 µM (active); in [17], 5.64 µM (inactive); in test [18] it was 2.04 µM (inactive). Moreover, the GI50 in [19] was 1.76 µM (inactive); in test [20], 1.88 µM (inactive).
